“Also recorded” adds a separate entry of the source.
Experiments:
[1] = tested on: platelets and endothelium in LPS-stimulated lung-on-a-chip (PAR-1); test: Platelet-endothelial dynamics (P-E) in LPS-stimulated lung-on-a-chip with PM2; assay type: cell-based, human
Source text: (§1) Specifically, the analysis includes a method to quantitate platelet function in flow chambers and microfluidic devices that has been primarily limited to analyzing platelet adhesion on bare collagen surfaces. To analyze platelet-endothelial dynamics that will act as a robust readout of physiologically-relevant clotting, an automated imaging program creates an image time-series, K(x, y, t), containing a 10-frame panorama in space. Images are acquired at a frame rate of 2 panoramic images per minute, for a total time of 15 minutes. A non-dimensional stochastic index is derived to quantitate platelet endothelial dynamics (“P-E”), which is the interpercentile range of a coefficient of variance of the image time-series: P-E=range(CV(K(x,y,t) (1) A feature of this analytical readout is that instead of an “ensemble averaging,” the method incorporates the cell-surface interactions at the pixel level and quantitates statistical “dispersion” of interactions.
(§2) After plasma treatment of the microfluidic devices, the two chambers are pre-treated with 10% (3-aminopropyl)-trimethoxysilane (APTMES, e.g., from Sigma) in 100% anhydrous alcohol (e.g., from Sigma) for 10-20 minutes. The chambers are flushed sequentially with 70% ethanol in water and 100% ethanol, and then dried at 60-80° C. for two hours. Then, a mixture of rat tail collagen I (100 μg ml^−1 in PBS, from BD Biosciences) and fibronectin (e.g., 30 μg/ml in PBSm, from BD Biosciences) is introduced in both chambers of the microfluidic device. The microfluidic device is incubated at 37° C. for at least 2 hours before flushing with PBS or EGM-2 cell culture media.
(§3) Some of the microfluidic devices are used with collagen coating alone (without cells). In other devices, HUVECs (e.g. from Lonza) are cultured in Endothelial Growth Medium-2 (EGM-2, from Lonza) and used between certain passages. The cells (5-10×10^6 cells/ml) are introduced into the collagen-coated channels and incubated for 20 minutes at 37° C. to promote cell attachment before a second similar HUVEC suspension is, then, introduced. The microfluidic devices are incubated upside down for an additional 20 minutes to seed the cells on the ceiling and walls of the lower chamber.
The lower chamber is then flushed with EGM-2 and, then, a suspension of primary alveolar epithelial cells (e.g., from ScienCell Research Labs, Carlsbad, Calif.; 5-6×10^6 cells ml^−1) is introduced into the top chamber of the device. After a few hours, the top and bottom chambers are flushed with their respective media, and the microfluidic devices are incubated at 37° C. under 5% CO2 for 3 days (with media being replaced each day once). […]

[2] = tested on: primary alveolar epithelial cells (AE) and endothelial cells with whole blood; test: Lung-on-a-chip stimulated with TNF-α or LPS: vascular ICAM-1, P-E, clots, gap junctions; assay type: cell-based, human
Source text: as §1, §2, §3
The lower chamber is then flushed with EGM-2 and, then, a suspension of primary alveolar epithelial cells (e.g., from ScienCell Research Labs, Carlsbad, Calif.; 5-6×10^6 cells ml^−1) is introduced into the top chamber of the device. After a few hours, the top and bottom chambers are flushed with their respective media, and the microfluidic devices are incubated at 37° C. under 5% CO2 for 3 days (with media being replaced each day once). On day 4, the bottom vascular chamber is set on perfusion of EGM-2 media (e.g., 30 μL hr^−1; 0.5% fetal bovine serum) to provide shear to the HUVEC vessel chamber and a continuous supply of fresh media.
On day 6, the epithelial cell media in the top chamber is aspirated to create the air-liquid interface of the alveoli. Hereon, the cell culture continues for another 6-8 days, after which, in some cases, the top chamber is supplemented with 0, 5, or 100 ng ml^−1 TNF-α in PBS (e.g., from Sigma) overnight or LPS (e.g., 100 ng ml^−1 of E. Coli, from Sigma,) for 2 hours to cause cell activation. The LPS is sonicated in ultrasonic bath for about 20-30 minutes before introducing into the microfluidic device. After stimulation, the top chamber is clamped, the bottom chamber is rinsed with culture media, a reservoir cut from a 3 ml slip-tip syringe (e.g., from BD) is inserted on one end of the lower chamber, and a 1/16-inch male luer connector (e.g., from Qosina Corp) is inserted on the other end of the lower chamber.
When analyzing the formation of fibrin, blood samples re added with 15 μg ml^−1 of fluorescently labeled fibrinogen (e.g., Alexa 488 from Invitrogen). […]

[3] = tested on: C57BL/6J mice; test: Mouse laser injury model of thrombosis and lung histology after LPS; assay type: in vivo
Method: In the above described techniques, C57BL/6J mice (about 8-12 weeks old) are used. For example, the mice are purchased from the Jackson Laboratory (Bar Harbor, Me.). Animal care and experimental procedures are performed in accordance with and under approval of the Beth Israel Deaconess Medical Center (“BIDMC”) Institutional Animal Care and Use Committee.
LPS is isolated from Escherichia coli serotype 0111:B4 (e.g., from Sigma-Aldrich, St Louis, Mo.). The anti-platelet antibody CD42b conjugated to Dylight649 is purchased, for example, from Emfret Analytics (Eibelstadt, Germany).
A laser-induced injury model of thrombosis is optionally used to monitor thrombosis formation in cremaster arterioles and venules in response to intraperitoneal injection of LPS (e.g., 10 mg kg^−1) or vehicle (e.g., physiological saline solution). Intravital microscopy of the cremaster microcirculation is performed, with injury to a cremaster arteriolar (e.g., 30-50 μm diameter) vessel wall being induced with a Micropoint Laser System (e.g., from Photonics Instruments, Chicago, Ill.). The Micropoint Laser System is focused through a microscope objective, parfocal with the focal plane and tuned to 440 nm. Data is captured digitally in a single fluorescence channel at 647/670 nm. Data acquisition is initiated both prior to and following a single laser pulse for each injury. Images are captured using a CCD camera (e.g., from Hamamatsu) at frame rates of 1/0.2 s^−1 and 1/0.5 s^−1, for a total of 240 seconds. The microscope system is controlled and images are analyzed using Slidebook (e.g., from Intelligent Imaging Innovations, Denver, Colo.). Anti-platelet antibodies re infused into the mice prior to vessel wall injury.
Histology Lungs are harvested in 4% paraformaldehyde. Following overnight incubation, lungs re transferred to 70% ethanol. Paraffin-embedded lungs are sectioned and stained with Hematoxylin and eosin […] or Masson's Trichome stain (MTS). This work is done by the histology and microscopy core at BIDMC.

Compound | platelet-endothelial dynamics (P-E) ([1]; PM2 30 μM added to blood alone, AE side stimulated with LPS) | clotting and platelet-endothelial dynamics (P-E) ([1]; PM2 30 μM added to endothelial cell culture medium, AE side stimulated with LPS 100 ng/ml) | P-E and thrombotic activity ([1]; PM2 added to both endothelium and platelets, AE side stimulated with LPS) | overall effect of PM2 in LPS-stimulated lung-on-a-chip ([1]; model of acute lung dysfunction, whole blood perfusion) | platelet-endothelial dynamics (P-E) ([2]; LPS in the absence of AE) | gap junctions ([2]; LPS in the presence of AE) | thrombus formation ([2]; LPS stimulation of endothelium alone) | endothelial inflammation (vascular ICAM-1) ([2]; LPS stimulation over the AE) | platelet-endothelial dynamics (P-E) ([2]; LPS stimulation over the AE) | thrombus formation (platelet aggregates, fibrin) in the lumen ([2]; LPS-stimulated device containing AE) | gap junctions ([2]; blood vessel alone stimulated with LPS) | vascular ICAM-1 ([2]; blood vessel alone stimulated with LPS for 2 hours (no AE)) | lung histology ([3]; LPS injection) | increase in P-E in cremaster artery and vein ([3]; laser injury plus LPS) | platelet-endothelial interactions / thrombosis in cremaster artery or vein ([3]; systemic LPS alone (10 mg kg^-1 intraperitoneal))
CCCC(=O)Nc1cccc(NC(=O)c2ccccc2Br)c1 [PM2, parmodulin 2] | reduction of P-E | no significant clotting occurs | completely inhibits the P-E and thrombotic activity | endothelial cytoprotective effect; also recorded: cytoprotective and anti-thrombotic effect | – | – | – | – | – | – | – | – | – | – | –
lipopolysaccharide [LPS] | – | – | – | – | near absent | significantly increase | does not cause thrombus formation | inflamed | significantly increases | large platelet aggregates are formed along with significant fibrin in the lumen; also recorded: vascular dysfunction and rapid clotting | not affected | no significant increase in ICAM-1 | lung injury and pulmonary thrombosis; also recorded: causes clotting in the lung | further exacerbated | does not induce any platelet-endothelial interactions; also recorded: does not cause thrombosis in a cremaster artery or vein

From US10732172B1, “Methods, systems, and compositions for determining blood clot formation, and uses thereof” (President and Fellows of Harvard College, priority 2015, dated 2020)
